pIC50: −log10 of the molar value.

Data on 18 compounds can be found in patent US9598446B2, “Amino compounds for treatment of complement mediated disorders” (priority 2014, dated 2017).

For the first test, the target named is Human factor D (Homo sapiens (Human), UniProt P00746). Nature of the test: Human Factor D Assay. The class given is biochemical.
Chain of Human factor D (P00746 26-253): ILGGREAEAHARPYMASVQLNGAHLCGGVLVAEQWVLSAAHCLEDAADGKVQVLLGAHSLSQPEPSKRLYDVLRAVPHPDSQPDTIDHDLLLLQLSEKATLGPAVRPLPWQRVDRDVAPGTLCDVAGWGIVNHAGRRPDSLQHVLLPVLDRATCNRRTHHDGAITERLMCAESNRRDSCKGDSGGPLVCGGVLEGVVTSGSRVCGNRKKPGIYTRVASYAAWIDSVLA
Settings: not given
Turning to `CC(=O)c1cn(CC(=O)N2C[C@H](F)C[C@H]2C(=O)NCc2cccc(Cl)c2F)c2cc(N(CC(=O)N3C[C@H](F)C[C@H]3C(=O)NCc3cccc(Cl)c3F)S(C)(=O)=O)ccc12` [Compound 1, (2S,4R)-1-(2-(N-(3-acetyl-1-(2-((2S,4R)-2-(3-chloro-2-fluorobenzyl-carbamoyl)-4-fluoropyrrolidin-1-yl)-2-oxoethyl)-1H-indol-6-yl)methylsulfonamido)acetyl)-N-(3-chloro-2-fluorobenzyl)-4-fluoropyrrolidine-2-carboxamide], the negative logarithm of the IC50 (pIC50) is 5.00 to 6.00.
In the case of `CC(=O)c1cn(CC(=O)N2C[C@H](F)C[C@H]2C(=O)NCc2nc3ccccc3s2)c2ccc(Nc3cncnc3)cc12` [Compound 16, (2S,4R)-1-(2-(3-acetyl-5-(pyrimidin-5-ylamino)-1H-indol-yl)acetyl)-N-(benzo[d]thiazol-2-ylmethyl)-4-fluoropyrrolidine-2-carboxamide], the pIC50 is 5.00 to 6.00.
The same measure, in the same setting: under `CNC(=O)[C@@H]1C[C@@H](F)CN1C(=O)Cn1cc(C(C)=O)c2cc(Nc3cncnc3)ccc21` [Compound 20, (2S,4R)-1-(2-(3-acetyl-5-(pyrimidin-5-ylamino)-1H-indol-1-yl)acetyl)-4-fluoro-N-methylpyrrolidine-2-carboxamide] stands 5.00 to 6.00.

The same test, now with this note: human factor D 80 nM, substrate Z-L-Lys-SBz1 and DTNB 100 μM each, pH 7.5; read-out: IC50.
In the case of `CC(=O)c1cn(CC(=O)N2C[C@H](F)C[C@H]2C(=O)NCc2cccc(Cl)c2F)c2cc(NS(=O)(=O)C(F)(F)F)ccc12` [Compound 2, (2S,4R)-1-(2-(3-acetyl-6-(trifluoromethylsulfon-amido)-1H-indol-1-yl)acetyl)-N-(3-chloro-2-fluorobenzyl)-4-fluoropyrrolidine-2-carboxamide], the pIC50 was greater than 6.00.
Still for that read-out and setting: for `CC(=O)c1cn(CC(=O)N2C[C@H](F)C[C@H]2C(=O)Nc2cccc(-c3ccccc3Cl)c2F)c2ccc(Nc3cncnc3)cc12` [Compound 3, (2S,4R)-1-(2-(3-acetyl-5-(pyrimidin-5-ylamino)-1H-indol-1-yl)acetyl)-N-(2′-chloro-2-fluorobiphenyl-3-yl)-4-fluoropyrrolidine-2-carboxamide] the value was greater than 6.00; for `CC(=O)c1cn(CC(=O)N2C[C@H](F)C[C@H]2C(=O)Nc2cccc(Br)n2)c2ccc(Nc3cncnc3)cc12` [Compound 4, (2S,4R)-1-(2-(3-acetyl-5-(pyrimidin-5-ylamino)-1H-indol-1-yl)acetyl)-N-(6-bromopyridin-2-yl)-4-fluoropyrrolidine-2-carboxamide], greater than 6.00.
Still for that read-out and setting: under `CC(=O)c1cn(CC(=O)N2C[C@H](F)C[C@H]2C(=O)Nc2cccc(Cl)n2)c2ccc(Nc3cncnc3)cc12` [Compound 6, (2S,4R)-1-(2-(3-acetyl-5-(pyrimidin-5-ylamino)-1H-indol-1-yl)acetyl)-N-(6-chloropyridin-2-yl)-4-fluoropyrrolidine-2-carboxamide] stands greater than 6.00.
Same read-out and setting: under `CC(=O)c1cn(CC(=O)N2C[C@H](F)C[C@H]2C(=O)N[C@H](CO)c2cccc(Cl)c2F)c2ccc(Nc3cncnc3)cc12` [Compound 7, (2S,4R)-1-(2-(3-acetyl-5-(pyrimidin-5-ylamino)-1H-indol-1-yl)acetyl)-N-((S)-1-(3-chloro-2-fluorophenyl)-2-hydroxyethyl)-4-fluoropyrrolidine-2-carboxamide] stands greater than 6.00.
As to `CC(=O)c1cn(CC(=O)N2C[C@H](F)C[C@H]2C(=O)N[C@@H](CO)c2cccc(Cl)c2F)c2ccc(Nc3cncnc3)cc12` [Compound 8, (2S,4R)-1-(2-(3-acetyl-5-(pyrimidin-5-ylamino)-1H-indol-1-yl)acetyl)-N-((R)-1-(3-chloro-2-fluorophenyl)-2-hydroxyethyl)-4-fluoropyrrolidine-2-carboxamide], the pIC50 is greater than 6.00.
`NC(=O)c1nn(CC(=O)N2C[C@H](F)C[C@H]2C(=O)Nc2cccc(-c3ccccc3Cl)c2F)c2ccc(Nc3cccnn3)cc12` [Compound 9, 1-(2-((2S,4R)-2-(2′-chloro-2-fluorobiphenyl-3-ylcarbamoyl)-4-fluoropyrrolidin-1-yl)-2-oxoethyl)-5-(pyridazin-3-ylamino)-1H-indazole-3-carboxamide]: the pIC50 was greater than 6.00.
On the same count and under the same terms, under `NC(=O)c1nn(CC(=O)N2C[C@H](F)C[C@H]2C(=O)Nc2cccc(-c3ccccc3Cl)c2F)c2ccc(Nc3cncnc3)cc12` [Compound 10, 1-(2-((2S,4R)-2-(2′-chloro-2-fluorobiphenyl-3-ylcarbamoyl)-4-fluoropyrrolidin-1-yl)-2-oxoethyl)-5-(pyrimidin-5-ylamino)-1H-indazole-3-carboxamide] stands greater than 6.00.
The same measure, in the same setting: under `NC(=O)c1nn(CC(=O)N2C[C@H](F)C[C@H]2C(=O)Nc2cccc(Cl)n2)c2ccc(Nc3cccnn3)cc12` [Compound 11, 1-(2-((2S,4R)-2-(6-chloropyridin-2-ylcarbamoyl)-4-fluoropyrrolidin-1-yl)-2-oxoethyl)-5-(pyridazin-3-ylamino)-1H-indazole-3-carboxamide] stands greater than 6.00; under `NC(=O)c1nn(CC(=O)N2C[C@H](F)C[C@H]2C(=O)Nc2cccc(Cl)n2)c2ccc(Nc3cncnc3)cc12` [Compound 12, 1-(2-((2S,4R)-2-(6-chloropyridin-2-ylcarbamoyl)-4-fluoropyrrolidin-1-yl)-2-oxoethyl)-5-(pyrimidin-5-ylamino)-1H-indazole-3-carboxamide], greater than 6.00; under `N#Cc1cnc(Nc2ccc3c(c2)c(C(N)=O)nn3CC(=O)N2C[C@H](F)C[C@H]2C(=O)Nc2cccc(-c3ccccc3Cl)c2F)nc1` [Compound 13, 1-(2-((2S,4R)-2-(2′-chloro-2-fluorobiphenyl-3-ylcarbamoyl)-4-fluoropyrrolidin-1-yl)-2-oxoethyl)-5-(5-cyanopyrimidin-2-ylamino)-1H-indazole-3-carboxamide], greater than 6.00.
Same read-out and setting: for `NC(=O)c1nn(CC(=O)N2C[C@H](F)C[C@H]2C(=O)Nc2cccc(-c3ccccc3Cl)c2F)c2ccc(Nc3cnc(C(F)(F)F)nc3)cc12` [Compound 14, 1-(2-((2S,4R)-2-(2′-chloro-2-fluorobiphenyl-3-ylcarbamoyl)-4-fluoropyrrolidin-1-yl)-2-oxoethyl)-5-(2-(trifluoromethyl)pyrimidin-5-ylamino)-1H-indazole-3-carboxamide] the value was greater than 6.00.
Consider `CC(=O)c1cn(CC(=O)N2C[C@H](F)C[C@H]2C(=O)NCc2ccccn2)c2ccc(Nc3cncnc3)cc12` [Compound 17, (2S,4R)-1-(2-(3-acetyl-5-(pyrimidin-5-ylamino)-1H-indol-1-yl)acetyl)-4-fluoro-N-(pyridin-2-ylmethyl)pyrrolidine-2-carboxamide], for which the pIC50 was greater than 6.00.
The same measure, in the same setting: under `CC(=O)c1cn(CC(=O)N2C[C@H](F)C[C@H]2C(=O)NCc2cc(F)cc(Cl)c2)c2ccc(Nc3cncnc3)cc12` [Compound 18, (2S,4R)-1-(2-(3-acetyl-5-(pyrimidin-5-ylamino)-1H-indol-1-yl)acetyl)-N-(3-chloro-5-fluorobenzyl)-4-fluoropyrrolidine-2-carboxamide] stands greater than 6.00.
With `CC(=O)c1cn(CC(=O)N2C[C@H](F)C[C@H]2C(=O)NCc2cccc(Cl)c2)c2ccc(Nc3cncnc3)cc12` [Compound 19, (2S,4R)-1-(2-(3-acetyl-5-(pyrimidin-5-ylamino)-1H-indol-1-yl)acetyl)-N-(3-chlorobenzyl)-4-fluoropyrrolidine-2-carboxamide], the pIC50 was greater than 6.00.

As a reminder, the pIC50 is −log10 of the IC50, conventionally taken in molar units.
